Reference: ChEMBL document CHEMBL5532748, “Design, synthesis and antibacterial activity evaluation of ebselen derivatives in NDM-1 producing bacteria” (RSC Med Chem, 2024)
Converted amounts (≈) assume the structure as drawn. The source made the active and inactive calls. The rule behind the calls is not given here.

Legend:
Citrobacter freundii [1] = test: Antibacterial activity against Citrobacter freundii producing NDM-1 and SHV-12 beta-lactamases; format: functional
Escherichia coli [2] = test: Antibacterial activity against Escherichia coli BJE-4 expressing NDM-1 gene; format: functional
Escherichia coli [3] = test: Antibacterial activity against Escherichia coli TG-1; format: functional
Escherichia coli [4] = test: Antibacterial activity against Escherichia coli producing NDM-1, CTX-M-15 and SHV-12 beta lactamases; format: functional
Enterobacter cloacae [5] = test: Antibacterial activity against Enterobacter cloacae producing NDM-1, CTX-M-14 and TEM-1 beta-lactamases; format: functional
Escherichia coli [6] = test: Antibacterial activity against Escherichia coli TG-1 transfected with Klebsiella pneumoniae full-length NDM-1 beta-lactamase gene; format: functional
Enterobacter cloacae [7] = test: Antibacterial activity against Enterobacter cloacae producing NDM-1, IMP-4 and TEM-1 beta-lactamases; format: functional
Enterobacter cloacae [8] = test: Antibacterial activity against Enterobacter cloacae producing NDM-1, TEM-1 and SHV-12 beta-lactamases; format: functional
Caco-2 = test: Antibacterial activity against Salmonella lomita SL131 infected in human Caco-2 cells assessed as reduction in bacterial survival rate at 64 ug/ml incubated for 6 hrs by agar dilution method; format: functional, cell-based; settings: Salmonella enterica subsp. enterica serovar Lomita, dose 64.0 µg/ml
Citrobacter freundii [9] = test: Antibacterial activity against Citrobacter freundii producing NDM-1, CTX-M-3 and KPC-2 beta-lactamases; format: functional
Klebsiella pneumoniae = test: Antibacterial activity against Klebsiella pneumoniae producing NDM-1, KPC-2 and SHV-12 beta-lactamases; format: functional
Escherichia coli [10] = test: Antibacterial activity against Escherichia coli producing NDM-1 and CTX-M-15 beta lactamases; format: functional
Escherichia coli [11] = test: Antibacterial activity against Escherichia coli BJE-4 expressing NDM-1 gene in presence of meropenem; format: functional
Escherichia coli [12] = test: Synergistic antibacterial activity against Escherichia coli BJE-4 expressing NDM-1 gene assessed as fractional inhibitory concentration index in presence of meropenem; format: functional
Escherichia coli [13] = test: Synergistic antibacterial activity against Escherichia coli TG-1 transfected with Klebsiella pneumoniae full-length NDM-1 beta lactamase gene assessed as fractional inhibitory concentration index in presence of meropenem; format: functional
Escherichia coli [14] = test: Antibacterial activity against Escherichia coli TG-1 transfected with Klebsiella pneumoniae full-length NDM-1 beta lactamase gene incubated in presence of meropenem; format: functional
[15] = biological target: Metallo-beta-lactamase type 2 (Bacteria, UniProt C7C422); test: Inhibition of NDM-1 (unknown origin) using nitrocefin as substrate incubated for 15 to 60 mins by absorption based analysis
Metallo-beta-lactamase type 2, sequence (C7C422 whole entry): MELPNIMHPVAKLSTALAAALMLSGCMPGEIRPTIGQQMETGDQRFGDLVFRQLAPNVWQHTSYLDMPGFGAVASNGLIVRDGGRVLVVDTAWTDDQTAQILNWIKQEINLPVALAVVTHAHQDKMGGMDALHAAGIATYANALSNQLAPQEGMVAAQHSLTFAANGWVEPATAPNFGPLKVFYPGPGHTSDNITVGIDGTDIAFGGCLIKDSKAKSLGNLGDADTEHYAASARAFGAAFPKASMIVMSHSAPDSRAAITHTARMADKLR

`C[C@@H](O)[C@H]1C(=O)N2C(C(=O)O)=C(S[C@@H]3CN[C@H](C(=O)N(C)C)C3)[C@H](C)[C@H]12` [MEROPENEM] showed an MIC (Citrobacter freundii [1]) of 64 mg/L (≈ 167 µM), an MIC (Escherichia coli [2]) greater than 16 mg/L and an MIC (Escherichia coli [3]) of 0.5 mg/L (≈ 1.3 µM). The MIC (Escherichia coli [4]) was greater than 64 mg/L, the MIC (Enterobacter cloacae [5]) was 64 mg/L (≈ 167 µM) and the MIC (Escherichia coli [6]) was greater than 64 mg/L. For the same compound, the MIC (Enterobacter cloacae [7]) was 64 mg/L (≈ 167 µM), the MIC (Enterobacter cloacae [8]) was 64 mg/L (≈ 167 µM) and the Activity (Caco-2) was “inactive”. For the same compound, the MIC (Citrobacter freundii [9]) was greater than 64 mg/L, the MIC (Klebsiella pneumoniae) was greater than 64 mg/L and the MIC (Escherichia coli [10]) was greater than 64 mg/L.

For `CC(C)(C)C(=O)NCCn1[se]c2ccccc2c1=O`, the MIC (Escherichia coli [11]) was 8 mg/L, the MIC (Escherichia coli [2]) was greater than 16 mg/L and the “fractional inhibitory concentration index (FICI)” value (Escherichia coli [12]) was 0.625. For the same compound, the “fractional inhibitory concentration index (FICI)” value (Escherichia coli [13]) was 2, the MIC (Escherichia coli [6]) was greater than 64 mg/L and the MIC (Escherichia coli [14]) was 64 mg/L.

In the case of `CN(C)S(=O)(=O)NCCn1[se]c2ccccc2c1=O`, the MIC (Escherichia coli [11]) is reported as 8 mg/L, the MIC (Escherichia coli [2]) is reported as greater than 16 mg/L and the “fractional inhibitory concentration index (FICI)” value (Escherichia coli [12]) is reported as 0.625. For the same compound, the “fractional inhibitory concentration index (FICI)” value (Escherichia coli [13]) was 0.25, the MIC (Escherichia coli [6]) was greater than 64 mg/L and the MIC (Escherichia coli [14]) was no more than 8 mg/L.

`CSc1nnc(-n2[se]c3ccccc3c2=O)s1` was tested, and the MIC (Escherichia coli [11]) was 8 mg/L, the MIC (Escherichia coli [2]) was greater than 16 mg/L and the “fractional inhibitory concentration index (FICI)” value (Escherichia coli [12]) was 0.625. The “fractional inhibitory concentration index (FICI)” value (Escherichia coli [13]) was 0.25, the MIC (Escherichia coli [6]) was greater than 64 mg/L and the IC50 [15] was 8.8 µM. It also gave an MIC (Escherichia coli [14]) of no more than 8 mg/L.

`CC(C)(C)C(=O)NCCCn1[se]c2ccccc2c1=O` was tested, and the MIC (Escherichia coli [11]) was 8 mg/L, the MIC (Escherichia coli [2]) was greater than 16 mg/L and the “fractional inhibitory concentration index (FICI)” value (Escherichia coli [12]) was 0.625. The “fractional inhibitory concentration index (FICI)” value (Escherichia coli [13]) was 0.5, the MIC (Escherichia coli [6]) was greater than 64 mg/L and the MIC (Escherichia coli [14]) was 16 mg/L.

For `CS(=O)(=O)c1ccc(-n2[se]c3ccccc3c2=O)cc1`, the MIC (Escherichia coli [11]) was 8 mg/L, the MIC (Escherichia coli [2]) was greater than 16 mg/L and the “fractional inhibitory concentration index (FICI)” value (Escherichia coli [12]) was 0.625. For the same compound, the “fractional inhibitory concentration index (FICI)” value (Escherichia coli [13]) was 0.25, the MIC (Escherichia coli [6]) was greater than 64 mg/L and the IC50 [15] was 7.29 µM. For the same compound, the MIC (Escherichia coli [14]) was no more than 8 mg/L.

In the case of `O=c1c2ccccc2[se]n1CCNS(=O)(=O)c1ccc(F)cc1`, the MIC (Escherichia coli [11]) is reported as 8 mg/L, the MIC (Escherichia coli [2]) is reported as greater than 16 mg/L and the “fractional inhibitory concentration index (FICI)” value (Escherichia coli [12]) is reported as 0.625. The “fractional inhibitory concentration index (FICI)” value (Escherichia coli [13]) was 0.25, the MIC (Escherichia coli [6]) was greater than 64 mg/L and the MIC (Escherichia coli [14]) was no more than 8 mg/L.

In the case of `O=c1c2ccccc2[se]n1-c1ccc(-c2ccccc2)cc1`, the MIC (Escherichia coli [11]) is reported as 8 mg/L, the MIC (Escherichia coli [2]) is reported as greater than 16 mg/L and the “fractional inhibitory concentration index (FICI)” value (Escherichia coli [12]) is reported as 0.625. The “fractional inhibitory concentration index (FICI)” value (Escherichia coli [13]) was 2, the MIC (Escherichia coli [6]) was 64 mg/L (≈ 183 µM) and the MIC (Escherichia coli [14]) was 64 mg/L.

For `COC(=O)c1ccc(-n2[se]c3ccccc3c2=O)cc1C`, the MIC (Escherichia coli [11]) was 8 mg/L, the MIC (Escherichia coli [2]) was greater than 16 mg/L and the “fractional inhibitory concentration index (FICI)” value (Escherichia coli [12]) was 0.625. The “fractional inhibitory concentration index (FICI)” value (Escherichia coli [13]) was 0.5, the MIC (Escherichia coli [6]) was greater than 64 mg/L and the MIC (Escherichia coli [14]) was 16 mg/L.

`CC(C)(C)OC(=O)N1CCC(n2[se]c3ccccc3c2=O)CC1` was tested, and the MIC (Escherichia coli [11]) was 8 mg/L, the MIC (Escherichia coli [2]) was greater than 16 mg/L and the “fractional inhibitory concentration index (FICI)” value (Escherichia coli [12]) was 0.625. The “fractional inhibitory concentration index (FICI)” value (Escherichia coli [13]) was 0.5, the MIC (Escherichia coli [6]) was greater than 64 mg/L and the MIC (Escherichia coli [14]) was 16 mg/L.

For `CC(C)(C)OC(=O)NCCCn1[se]c2ccccc2c1=O`, the MIC (Escherichia coli [11]) was 8 mg/L, the MIC (Escherichia coli [2]) was greater than 16 mg/L and the “fractional inhibitory concentration index (FICI)” value (Escherichia coli [12]) was 0.625. For the same compound, the “fractional inhibitory concentration index (FICI)” value (Escherichia coli [13]) was 0.5, the MIC (Escherichia coli [6]) was greater than 64 mg/L and the MIC (Escherichia coli [14]) was 16 mg/L.

In the case of `O=c1c2ccccc2[se]n1CCNS(=O)(=O)c1ccc(Cl)c([N+](=O)[O-])c1`, the MIC (Escherichia coli [11]) is reported as 8 mg/L, the MIC (Escherichia coli [2]) is reported as greater than 16 mg/L and the “fractional inhibitory concentration index (FICI)” value (Escherichia coli [12]) is reported as 0.625. For the same compound, the “fractional inhibitory concentration index (FICI)” value (Escherichia coli [13]) was 0.5, the MIC (Escherichia coli [6]) was greater than 64 mg/L and the MIC (Escherichia coli [14]) was 16 mg/L.
